Here are results for 19 molecules from patent US10941152B2, “Pyrazole compounds as modulators of FSHR and uses thereof” (TOCOPHERX, INC., priority 2014, dated 2021).

In general, EC50 refers to the concentration needed to bring the measured effect to its halfway point.

For experiment [1], the target named is T1, FSHR (Homo sapiens, UniProt P23945).
T1 construct: expressed in transfected cells; host or cells: CHO (Cho-FSHR-LUC-1-1-43)
T1 sequence (P23945 18-695): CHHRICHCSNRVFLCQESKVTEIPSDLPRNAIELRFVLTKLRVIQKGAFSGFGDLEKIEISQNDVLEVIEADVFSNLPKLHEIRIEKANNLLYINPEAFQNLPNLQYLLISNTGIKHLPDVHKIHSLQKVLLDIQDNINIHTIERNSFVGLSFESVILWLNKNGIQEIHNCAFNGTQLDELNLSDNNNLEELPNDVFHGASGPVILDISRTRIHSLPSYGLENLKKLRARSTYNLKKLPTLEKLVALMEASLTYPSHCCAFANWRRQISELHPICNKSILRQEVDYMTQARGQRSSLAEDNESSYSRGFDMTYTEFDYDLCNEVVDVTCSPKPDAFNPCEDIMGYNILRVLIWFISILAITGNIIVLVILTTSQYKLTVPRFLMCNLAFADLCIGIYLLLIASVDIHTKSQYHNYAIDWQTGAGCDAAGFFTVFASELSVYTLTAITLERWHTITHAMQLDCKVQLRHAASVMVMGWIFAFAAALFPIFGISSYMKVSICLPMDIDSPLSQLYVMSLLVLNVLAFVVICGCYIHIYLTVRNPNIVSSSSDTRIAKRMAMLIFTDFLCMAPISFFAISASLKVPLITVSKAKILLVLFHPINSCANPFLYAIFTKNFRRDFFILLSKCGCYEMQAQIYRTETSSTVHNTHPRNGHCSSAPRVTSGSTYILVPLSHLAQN
The experiment can be described thus: EC50 of cyclic AMP production in CHO FSHR cells + EC20 FSH (Assay A). To be noted: cyclic AMP production in CHO FSHR cells + EC20 FSH (0.265 pM), HTRF. It counts as cell-based. In short, it runs like this:
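CHO cells expressing FSHR, stimulated 1 h at 37° C with compound plus EC20 FSH (0.265 pM final) and 200 μM IBMX. cAMP measured by HTRF (665/620 nm ratio) after 1 h at room temperature; effect expressed relative to maximum response of FSH standard.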

Experiment [2] concerns the target T2, follicle-stimulating hormone (FSH) receptor (Rattus norvegicus, UniProt P20395).
T2 construct: endogenous in cells; host or cells: rat granulosa cells
T2 sequence (P20395 18-692): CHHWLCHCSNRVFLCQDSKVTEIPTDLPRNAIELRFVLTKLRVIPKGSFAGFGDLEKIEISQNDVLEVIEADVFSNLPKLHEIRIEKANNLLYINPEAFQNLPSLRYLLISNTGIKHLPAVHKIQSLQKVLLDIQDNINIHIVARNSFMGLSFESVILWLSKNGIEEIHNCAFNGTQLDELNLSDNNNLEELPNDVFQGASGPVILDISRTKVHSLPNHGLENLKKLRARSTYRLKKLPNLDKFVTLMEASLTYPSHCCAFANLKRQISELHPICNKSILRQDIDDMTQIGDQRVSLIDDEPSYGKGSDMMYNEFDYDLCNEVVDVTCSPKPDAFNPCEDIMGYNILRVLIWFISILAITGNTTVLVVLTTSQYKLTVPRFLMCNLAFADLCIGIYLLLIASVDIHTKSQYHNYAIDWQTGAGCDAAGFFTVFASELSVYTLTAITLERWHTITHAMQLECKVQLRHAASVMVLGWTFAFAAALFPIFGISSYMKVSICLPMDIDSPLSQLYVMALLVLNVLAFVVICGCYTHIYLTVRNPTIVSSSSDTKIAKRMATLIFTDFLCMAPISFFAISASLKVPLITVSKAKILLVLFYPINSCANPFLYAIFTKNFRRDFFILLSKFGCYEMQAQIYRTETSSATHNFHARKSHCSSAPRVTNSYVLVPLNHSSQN
The experiment in a line: Rat granulosa EC50 FSH (Assay B). It counts as cell-based. The procedure: Example 25. Rat granulosa EC50 FSH (Assay B)
The assay was performed pursuant to the teaching of Yanofsky et al. (2006) Allosteric activation of the follicle-stimulating hormone (FSH) receptor by selective, nonpeptide agonists (JBC 281(19): 13226-13233, which is incorporated by reference in the disclosure of the invention).

For `COCC1(CC(F)(F)F)CCCN1C(=O)c1nn(-c2ccsc2)c2c1COc1cc(OC)c(-c3ccn(C)n3)cc1-2` (centres unmarked) [Compound 131, (7-methoxy-8-(1-methyl-1H-pyrazol-3-yl)-1-(thiophen-3-yl)-1,4-dihydrochromeno[4,3-c]pyrazol-3-yl)(2-(methoxymethyl)-2-(2,2,2-trifluoroethyl)pyrrolidin-1-yl)methanone], the EC50 in experiment [1] and in experiment [2] was 10 to 100 nM throughout.

Regarding `COc1cc2c(cc1-c1cncc(C#N)c1)-c1c(c(C(=O)N3CCOCC3(C)C)nn1-c1cc(F)cc(Cl)c1)CO2` [Compound 28, 5-(1-(3-chloro-5-fluorophenyl)-3-(3,3-dimethylmorpholine-4-carbonyl)-7-methoxy-1,4-dihydrochromeno[4,3-c]pyrazol-8-yl)nicotinonitrile], the EC50 in experiment [1] was under 10 nM; in experiment [2], 101 to 500 nM.

`COc1cc2c(cc1-c1cnn(CCO)c1)-c1c(c(C(=O)N3CCOCC3(C)C)nn1-c1cc(F)cc(Cl)c1)CO2` [Compound 78, (1-(3-chloro-5-fluorophenyl)-8-(1-(2-hydroxyethyl)-1H-pyrazol-4-yl)-7-methoxy-1,4-dihydrochromeno[4,3-c]pyrazol-3-yl)(3,3-dimethylmorpholino)methanone]: the EC50 in experiment [1] is under 10 nM; in experiment [2], 10 to 100 nM.

Turning to `COc1cc2c(cc1-c1cc(C(N)=O)ncc1F)-c1c(c(C(=O)N(C)C(C)(C)C#N)nn1-c1cc(F)cc(F)c1)CO2` [Compound 109, 8-(2-carbamoyl-5-fluoropyridin-4-yl)-N-(2-cyanopropan-2-yl)-1-(3,5-difluorophenyl)-7-methoxy-N-methyl-1,4-dihydrochromeno[4,3-c]pyrazole-3-carboxamide], the figures for the EC50 in experiment [1] and in experiment [2] were under 10 nM and 10 to 100 nM, respectively.

As for `COc1cc2c(cc1-c1cncc(C(=O)O)c1)-c1c(c(C(=O)N3CCOCC3(C)C)nn1-c1cc(Cl)cc(Cl)c1)CO2` [Compound 178, 5-(1-(3,5-dichlorophenyl)-3-(3,3-dimethylmorpholine-4-carbonyl)-7-methoxy-1,4-dihydrochromeno[4,3-c]pyrazol-8-yl)nicotinic acid], the EC50 in experiment [1] and in experiment [2] was under 10 nM throughout.

As for `COc1cc(F)cc(-n2nc(C(=O)N3CCOCC3(C)C)c3c2-c2cc(-c4cnn(CCO)c4)c(OC)cc2OC3)c1` [Compound 74, (3,3-dimethylmorpholino)(1-(3-fluoro-5-methoxyphenyl)-8-(1-(2-hydroxyethyl)-1H-pyrazol-4-yl)-7-methoxy-1,4-dihydrochromeno[4,3-c]pyrazol-3-yl)methanone], the EC50 is under 10 nM in experiment [1] and 10 to 100 nM in experiment [2].

In the case of `COc1cc2c(cc1-c1ccccn1)-c1c(c(C(=O)N(C)C(C)(C)C)nn1-c1ccsc1)CO2` [Compound 58, N-tert-butyl-7-methoxy-N-methyl-8-(pyridin-2-yl)-1-(thiophen-3-yl)-1,4-dihydrochromeno[4,3-c]pyrazole-3-carboxamide], the EC50 in experiment [1] is 10 to 100 nM; in experiment [2], over 500 nM.

On to `COc1cc2c(cc1-c1cnn(CC(N)=O)c1)-c1c(c(C(=O)N(C)C(C)(C)C)nn1-c1cc(Cl)cc(Cl)c1)CO2` [Compound 2, 8-(1-(2-amino-2-oxoethyl)-1H-pyrazol-4-yl)-N-tert-butyl-1-(3,5-dichlorophenyl)-7-methoxy-N-methyl-1,4-dihydrochromeno[4,3-c]pyrazole-3-carboxamide], for which the EC50 in experiment [1] was under 10 nM; in experiment [2] it was 10 to 100 nM.

In the case of `COc1cc2c(cc1-c1ccn(C)n1)-c1c(c(C(=O)N(C)C(C)(C)C)nn1-c1cc(C)cc(Cl)c1)CO2` [Compound 30, N-tert-butyl-1-(3-chloro-5-methylphenyl)-7-methoxy-N-methyl-8-(1-methyl-1H-pyrazol-3-yl)-1,4-dihydrochromeno[4,3-c]pyrazole-3-carboxamide], the EC50 in experiment [1] and in experiment [2] was 101 to 500 nM each time.

Consider `COc1cc2c(cc1-c1cnn(CC(O)CO)c1)-c1c(c(C(=O)N(C)C(C)(C)C)nn1-c1cc(Cl)cc(Cl)c1)CO2` (single isomer, unassigned) [Compound 191, N-tert-butyl-1-(3,5-dichlorophenyl)-8-(1-(2,3-dihydroxypropyl)-1H-pyrazol-4-yl)-7-methoxy-N-methyl-1,4-dihydrochromeno[4,3-c]pyrazole-3-carboxamide], for which the values for the EC50 in experiment [1] and in experiment [2] were 10 to 100 nM and 101 to 500 nM, respectively.

Consider `COc1cc2c(cc1-c1nn(C)cc1C#N)-c1c(c(C(=O)N(C)C(C)(C)C)nn1-c1cc(F)cc(F)c1)CO2` [Compound 149], for which the figures for the EC50 in experiment [1] and in experiment [2] were under 10 nM and 10 to 100 nM, respectively.

On to `COc1cc(Cl)cc(-n2nc(C(=O)N3CCOCC3(C)C)c3c2-c2cc(-c4cncc(C(N)=O)c4)c(OC)cc2OC3)c1` [Compound 157], for which the 50% effective concentration (EC50) in experiment [1] and in experiment [2] was under 10 nM in each case.

For the molecule `COc1cc(OC)cc(-n2nc(C(=O)N(C)C(C)(C)C)c3c2-c2cc(-c4cncc(C(N)=O)c4)c(OC)cc2OC3)c1` [Compound 160], the results for the EC50 in experiment [1] and in experiment [2] were under 10 nM and 10 to 100 nM, respectively.

As to `COc1cc2c(cc1-c1cncc(C(N)=O)c1C)-c1c(c(C(=O)N(C)C(C)(C)C)nn1-c1cc(Cl)cc(Cl)c1)CO2` [Compound 116, N-tert-butyl-8-(5-carbamoyl-4-methylpyridin-3-yl)-1-(3,5-dichlorophenyl)-7-methoxy-N-methyl-1,4-dihydrochromeno[4,3-c]pyrazole-3-carboxamide], the EC50 in experiment [1] was under 10 nM; in experiment [2], 10 to 100 nM.

Regarding `COc1cc(OC)cc(-n2nc(C(=O)N(C)C(C)(C)C)c3c2-c2cc(-c4nn(C)cc4Br)c(OC)cc2OC3)c1` [Compound 145, 8-(4-bromo-1-methyl-1H-pyrazol-3-yl)-N-tert-butyl-1-(3,5-dimethoxyphenyl)-7-methoxy-N-methyl-1,4-dihydrochromeno[4,3-c]pyrazole-3-carboxamide], the EC50 is under 10 nM in experiment [1] and 101 to 500 nM in experiment [2].

For the molecule `COc1cc2c(cc1-c1c(C)nn(CC(N)=O)c1C)-c1c(c(C(=O)N(C)C(C)(C)C)nn1-c1cc(Cl)cc(Cl)c1)CO2` [Compound 139, 8-(1-(2-amino-2-oxoethyl)-3,5-dimethyl-1H-pyrazol-4-yl)-N-tert-butyl-1-(3,5-dichlorophenyl)-7-methoxy-N-methyl-1,4-dihydrochromeno[4,3-c]pyrazole-3-carboxamide], the values for the concentration giving a half-maximal response (EC50) in experiment [1] and in experiment [2] were under 10 nM and 10 to 100 nM, respectively.

Consider `COc1cc2c(cc1OC(C)CO)-c1c(c(C(=O)N(C)C(C)(C)C)nn1-c1ccsc1)CO2` (centres unmarked) [Compound 193, N-tert-butyl-8-(1-hydroxypropan-2-yloxy)-7-methoxy-N-methyl-1-(thiophen-3-yl)-1,4-dihydrochromeno[4,3-c]pyrazole-3-carboxamide], for which the EC50 in experiment [1] was 10 to 100 nM; in experiment [2], 101 to 500 nM.

Take `COc1cc2c(cc1-c1cc(C(N)=O)ncn1)-c1c(c(C(=O)N(C)C(C)(C)C)nn1-c1cc(Cl)cc(Cl)c1)CO2` [Compound 114, N-tert-butyl-8-(6-carbamoylpyrimidin-4-yl)-1-(3,5-dichlorophenyl)-7-methoxy-N-methyl-1,4-dihydrochromeno[4,3-c]pyrazole-3-carboxamide]: the results for the EC50 in experiment [1] and in experiment [2] were 10 to 100 nM and 101 to 500 nM, respectively.

Take `CNC(=O)Cn1cc(-c2cc3c(cc2OC)OCc2c(C(=O)N(C)C(C)(C)C)nn(-c4cc(Cl)cc(Cl)c4)c2-3)cn1` [Compound 91, N-tert-butyl-1-(3,5-dichlorophenyl)-7-methoxy-N-methyl-8-(1-(2-(methylamino)-2-oxoethyl)-1H-pyrazol-4-yl)-1,4-dihydrochromeno[4,3-c]pyrazole-3-carboxamide]: the EC50 was under 10 nM in experiment [1] and 10 to 100 nM in experiment [2].
